pIC50: −log10 of the molar value. Like-named read-outs stand apart in the source and are kept apart here.
Biological target: T1, EHMT1 (Homo sapiens, UniProt Q9H9B1)
T1 sequence (Q9H9B1 1-1298): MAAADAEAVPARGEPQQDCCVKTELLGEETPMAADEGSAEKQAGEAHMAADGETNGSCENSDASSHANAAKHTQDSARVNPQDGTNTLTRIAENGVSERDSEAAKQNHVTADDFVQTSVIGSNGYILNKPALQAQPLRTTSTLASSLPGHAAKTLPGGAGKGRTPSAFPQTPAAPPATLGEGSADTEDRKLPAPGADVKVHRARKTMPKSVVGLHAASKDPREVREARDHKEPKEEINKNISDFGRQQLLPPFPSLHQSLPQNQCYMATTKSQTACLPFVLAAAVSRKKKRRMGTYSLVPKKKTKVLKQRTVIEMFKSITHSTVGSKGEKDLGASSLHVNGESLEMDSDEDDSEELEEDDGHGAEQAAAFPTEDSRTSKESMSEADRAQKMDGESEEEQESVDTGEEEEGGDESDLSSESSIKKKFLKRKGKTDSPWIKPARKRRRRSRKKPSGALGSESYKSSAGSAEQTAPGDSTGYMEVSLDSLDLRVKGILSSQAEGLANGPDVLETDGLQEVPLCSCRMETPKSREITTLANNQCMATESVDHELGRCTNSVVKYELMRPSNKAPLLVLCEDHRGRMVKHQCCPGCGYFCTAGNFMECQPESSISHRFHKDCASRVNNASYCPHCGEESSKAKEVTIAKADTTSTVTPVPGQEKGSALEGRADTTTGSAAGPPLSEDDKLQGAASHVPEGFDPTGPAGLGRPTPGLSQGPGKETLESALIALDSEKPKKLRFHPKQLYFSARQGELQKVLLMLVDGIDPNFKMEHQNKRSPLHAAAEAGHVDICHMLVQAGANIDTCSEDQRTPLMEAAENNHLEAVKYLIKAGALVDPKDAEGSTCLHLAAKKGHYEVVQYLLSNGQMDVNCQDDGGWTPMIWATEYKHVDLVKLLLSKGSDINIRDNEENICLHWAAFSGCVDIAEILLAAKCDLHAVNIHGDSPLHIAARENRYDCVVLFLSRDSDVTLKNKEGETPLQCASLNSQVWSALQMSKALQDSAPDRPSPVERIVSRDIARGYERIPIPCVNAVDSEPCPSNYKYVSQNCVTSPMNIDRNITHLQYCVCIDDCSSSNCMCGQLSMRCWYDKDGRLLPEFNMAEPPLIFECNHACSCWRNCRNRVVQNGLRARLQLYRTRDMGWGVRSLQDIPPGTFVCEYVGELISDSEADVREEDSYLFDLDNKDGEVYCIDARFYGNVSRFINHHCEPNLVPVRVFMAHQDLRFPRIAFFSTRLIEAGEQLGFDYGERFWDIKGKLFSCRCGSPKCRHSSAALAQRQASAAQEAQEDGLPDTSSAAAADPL
Assay: EHMT1 enzyme assay on peptide substrate (EHMT1 PEP)
Assay type: biochemical
Details: read-out: EHMT1 PEP IC50

SMILES | pIC50 (Table VII) | pIC50 (Table VI)
CNc1ccnc(Nc2ccc(OC)c(OC[C@@H](C)CN3CCC3)c2)n1 [Compound 1092] | 5.00 to 6.00 | 
CNCCCOc1cc(Nc2nccc(NC)n2)cnc1OC [Compound 1053] | 6.00 to 7.00 | 
COc1cc2c(C3CCN(C4CCOCC4)CC3)cc(C)nc2cc1OCCCN1CCCC1 [Compound 755] |  | > 7.00
CNc1cc(C)nc(Nc2ccc(OC)c(COCCN(C)C)c2)n1 [Compound 1105] | 6.00 to 7.00 | 
CNc1cc2cc(OCCCN3CCCC3)c(OC)cc2cc1Cl [Compound 1043] | 6.00 to 7.00 | 
CNc1cc(C)nc(Nc2ccc(OC)c(OC[C@H]3CCN(C(C)(C)C)C3)c2)n1 [Compound 610] |  | < 5.00
CNc1ccnc(Nc2ccc(OC)c(OCC(C)(O)CN3CCC3)c2)n1 (centres unmarked) [Compound 1057] | 6.00 to 7.00 | 
COc1cc2c(C#CCN3CCOCC3)cc(C)nc2cc1OCCCN1CCCC1 [Compound 763] |  | < 5.00
CNc1ccnc(Nc2ccc(OC)c(OC[C@@H]3CN(C)CCO3)c2)n1 [Compound 1070] | < 5.00 | 
CNc1cc(C)c2cc(OC)c(OC[C@H](C)CN3CCC3)cc2n1 [Compound 1088] | > 7.00 | 
CNc1ccnc(Nc2cnc(OC)c(OC[C@@H]3CCN(C4CC4)C3)c2)n1 [Compound 1051] | > 7.00 | 
COc1ccc(Nc2nc(C)cc(NC3CCCN(C)C3)n2)cc1OCCCN1CCCC1 (centres unmarked) [Compound 787] |  | > 7.00
CNc1ccnc(Nc2ccc(OC)c(ONC[C@@H]3CCCN3)c2)n1 [Compound 1061] | 6.00 to 7.00 | 
CNc1ccnc(Nc2ccc(OC)c(OC[C@@H]3CCN(C4CC4)C3)c2)n1 [Compound 1056] | > 7.00 | 
CNc1cc(C)nc(Nc2ccc(OC)c(OC[C@H](O)CN3CC(C)C3)c2)n1 [Compound 1100] | 6.00 to 7.00 | 
CNCC(C)COc1cc(Nc2nccc(NC)n2)ccc1OC (centres unmarked) [Compound 1086] | 5.00 to 6.00 | 
CNc1ccnc(Nc2cnc(OC)c(OCCCN3CCC3)c2)n1 [Compound 1050] | > 7.00 | 
CNc1nc(C2CN(C)C2)c2cc(OC)c(OCCCN3CCCC3)cc2n1 [Compound 753] |  | > 7.00
CNc1nc(C2CCN(C3CCOC3)CC2)c2cc(OC)c(OCCCN3CCCC3)cc2n1 (centres unmarked) [Compound 759] |  | > 7.00
CNc1cc(C)nc(Nc2ccc(OC)c(OC[C@H](O)CNC3CCC3)c2)n1 [Compound 1079] | 6.00 to 7.00 | 
COc1ccc(Nc2nc(C)cc(NC3CCOC3)n2)cc1OCCCN1CCCC1 (centres unmarked) [Compound 789] |  | > 7.00
CNCCNCc1cc(Nc2nc(C)cc(NC)n2)ccc1OC [Compound 1080] | > 7.00 | 

SMILES | pIC50 (Table VII) | pIC50 (Table VI)
COc1cc2c(C3CCN(C4CCOC4)CC3)cc(C)nc2cc1OCCCN1CCCC1 (centres unmarked) [Compound 756] |  | > 7.00
CNCCNCc1cc(Nc2nccc(NC)n2)cnc1OC [Compound 1077] | 6.00 to 7.00 | 
CNc1ccnc(Nc2cnc(OC)c(OCCCN3CCCC3)c2)n1 [Compound 1048] | > 7.00 | 
CNc1cc(C2CCN(C3CCOCC3)CC2)c2cc(OC)c(OCCCN3CCCC3)cc2n1 [Compound 757] |  | > 7.00
COc1cc2c(C3CCN(C4CCOC4)CC3)nc(C)nc2cc1OCCCN1CCCC1 (centres unmarked) [Compound 760] |  | 5.00 to 6.00
CNc1cc(C)nc(Nc2ccc(OC)c(OC[C@H](O)CN3CCC3)c2)n1 [Compound 1078] | > 7.00 | 
CCN1CCC(O)(COc2cc(Nc3nccc(NC)n3)ccc2OC)C1 (centres unmarked) [Compound 1096] | < 5.00 | 
CNc1ccnc(Nc2ccc(OC)c(OC[C@H](O)CN3CCC3)c2)n1 [Compound 1047] | > 7.00 | 
CNc1ccnc(Nc2ccc(OC)c(OC[C@@H](CN3CCCC3)OC)c2)n1 [Compound 1083] | 6.00 to 7.00 | 
CNC[C@@H](O)COc1cc(Nc2nccc(NC)n2)ccc1OC [Compound 1054] | 6.00 to 7.00 | 
COc1cc2c(C3CN(C)C3)nc(C)nc2cc1OCCCN1CCCC1 [Compound 754] |  | 5.00 to 6.00
CNc1cc(C)nc(Nc2ccc(OC)c(OC[C@H](O)CN3CC(C)C3)c2)n1 [Compound 1099] | > 7.00 | 
CNc1ccnc(Nc2ccc(OC)c(OCC3(O)CCN(C)C3)c2)n1 (centres unmarked) [Compound 1097] | 5.00 to 6.00 | 
CNc1cc(C)nc(Nc2ccc(OC)c(CNCCN(C)C)c2)n1 [Compound 1101] | > 7.00 | 
CNc1ccnc(Nc2cnc(OC)c(OC[C@@H]3CCN(C)C3)c2)n1 [Compound 1065] | > 7.00 | 
CCNc1cc(C)nc(Nc2ccc(OC)c(OC[C@H](O)CN3CCCC3)c2)n1 [Compound 1106] | > 7.00 | 
CNc1cc(C#CCN2CCOCC2)cc2cc(OCCCN3CCCC3)c(OC)cc12 [Compound 784] |  | 5.00 to 6.00
CNC[C@@H](C)NCc1cc(Nc2nc(C)cc(NC)n2)ccc1OC [Compound 1103] | 5.00 to 6.00 | 
CNc1ccnc(Nc2ccc(OC)c(CNCCN3CCC3)c2)n1 [Compound 1075] | > 7.00 | 
CNCCCOc1cc(Nc2nccc(NC)n2)ccc1OC [Compound 1052] | 6.00 to 7.00 | 
CNc1cc(C2CCOCC2)c2cc(OC)c(OC[C@H](O)CN3CCCC3)cc2n1 [Compound 1107] | > 7.00 | 
CNc1nc(C2CCN(C)C2)c2cc(OC)c(OCCCN3CCCC3)cc2n1 (centres unmarked) [Compound 748] |  | 6.00 to 7.00

SMILES | pIC50 (Table VII) | pIC50 (Table VI)
CNc1cc(C2CCN(C3CCOC3)CC2)c2cc(OC)c(OCCCN3CCCC3)cc2n1 (centres unmarked) [Compound 758] |  | > 7.00
CNC[C@H](C)NCc1cc(Nc2nc(C)cc(NC)n2)ccc1OC [Compound 1102] | > 7.00 | 
CNCC(C)NCc1cc(Nc2nc(C)cc(NC)n2)ccc1OC (centres unmarked) [Compound 1090] | 6.00 to 7.00 | 
CNc1ccnc(Nc2ccc(OC)c(OCCC(C)N3CCC3)c2)n1 (centres unmarked) [Compound 1060] | 6.00 to 7.00 | 
CNc1ccnc(Nc2cnc(OC)c(OC[C@@H]3CCN(C4CCC4)C3)c2)n1 [Compound 1098] | > 7.00 | 
CNc1ccnc(Nc2ccc(OC)c(OC[C@H]3CNCCO3)c2)n1 [Compound 1069] | 5.00 to 6.00 | 
CCN1CCO[C@@H](COc2cc(Nc3nccc(NC)n3)ccc2OC)C1 [Compound 1068] | < 5.00 | 
CNc1ccnc(Nc2ccc(OC)c(OC[C@H]3CN(C)CCO3)c2)n1 [Compound 1067] | < 5.00 | 
CNc1ccnc(Nc2ccc(OC)c(OC[C@H](O)CN3CCC3)c2)n1 [Compound 1093] | > 7.00 | 
CNC[C@H](COc1cc(Nc2nccc(NC)n2)ccc1OC)OC [Compound 1066] | 5.00 to 6.00 | 
CCN1CCO[C@H](COc2cc(Nc3nccc(NC)n3)ccc2OC)C1 [Compound 1071] | < 5.00 | 
CCN1CC[C@@H](COc2cc(Nc3nccc(NC)n3)ccc2OC)C1 [Compound 1055] | > 7.00 | 
CNc1cc(C)nc(Nc2cnc(OC)c(OC[C@H](O)CN3CCC3)c2)n1 [Compound 1089] | > 7.00 | 
CNc1cc2sccc2c(Nc2cc(OCCCN3CCCC3)c(OC)cn2)n1 [Compound 609] |  | 6.00 to 7.00
CNc1ccnc(Nc2ccc(OC)c(CNC[C@H]3CCCN3)c2)n1 [Compound 1062] | 5.00 to 6.00 | 
CNc1cc(C)nc(Nc2ccc(OC)c(CNCCN3CCC3)c2)n1 [Compound 1081] | > 7.00 | 
CNc1ccnc(Nc2ccc(OC)c(OCC[C@@H]3CCCN3)c2)n1 [Compound 1087] | 6.00 to 7.00 | 
CNc1cc(C2CCOCC2)c2cc(OC)c(OCCCN3CC(O)C3)cc2n1 [Compound 1091] | > 7.00 | 
CNCC(C)(O)COc1cc(Nc2nccc(OC)n2)ccc1OC (centres unmarked) [Compound 1058] | < 5.00 | 
CNc1ccnc(Nc2ccc(OC)c(OCC(C)CN3CCC3)c2)n1 (centres unmarked) [Compound 1085] | > 7.00 | 
CNCCNC(C)c1cc(Nc2nc(C)cc(NC)n2)ccc1OC (centres unmarked) [Compound 1095] | 6.00 to 7.00 | 
